{"source": "patent US20090264425A1", "about": "“CHEMICAL COMPOUNDS” (PFIZER LIMITED, priority 2004, published 2009)", "data": [{"molecular_target": "T1, HIV-1 reverse transcriptase (Human immunodeficiency virus type 1 group M subtype B, UniProt P04585)", "T1 construct": "purified recombinant HIV-1 reverse transcriptase (RT, EC, 2.7.7.49); made in house; host or cells: Escherichia coli", "assay": "Inhibition of HIV-1 reverse transcriptase enzyme ([3H]-Flashplate enzyme assay, 384-well)", "assay_type": "biochemical", "details": "purified recombinant HIV-1 RT expressed in Escherichia Coli; 5% final DMSO", "description": "The activity of the compounds of the invention as reverse transcriptase inhibitors may be measured using the following assay.\nInhibition of HIV-1 Reverse Transcriptase Enzyme\nThe reverse transcriptase activity of the compounds of the invention may be assayed as follows. Using the purified recombinant HIV-1 reverse transcriptase (RT, EC, 2.7.7.49) obtained by expression in Escherichia Coli, a 384-well plate assay system was established for assaying a large number of samples using the [3H]-Flashplate enzyme assay system (NEN-SMP 410A) following the manufacturer's recommendations. The compounds were dissolved in 100% DMSO and diluted with the appropriate buffer to a 5% final DMSO concentration. The inhibitory activity was expressed in percent inhibition relative to the DMSO control.", "units": {"IC50": "nM"}, "values": [{"smiles": "Cc1nc(S(N)(=O)=O)ccc1NC(=O)COc1ccc(Cl)cc1Sc1cc(Cl)cc(C#N)c1", "note": "[Example 46, N-[6-(Aminosulfonyl)-2-methylpyridin-3-yl]-2-{4-chloro-2-[(3-chloro-5-cyanophenyl)thio]phenoxy}acetamide]", "IC50": 27.7}, {"smiles": "N#Cc1cc(Cl)cc(Oc2cc(Cl)ccc2OCC(=O)N2CCc3ccc(S(=O)(=O)N4CCOCC4)cc3C2)c1", "note": "[Example 16]", "IC50": 541}, {"smiles": "N#Cc1cc(Cl)cc(Oc2cc(Cl)ccc2OCC(=O)N2CCCc3cc(S(N)(=O)=O)ccc32)c1", "note": "[Example 1, 1-{[4-Chloro-2-(3-chloro-5-cyanophenoxy)phenoxy]acetyl}-1,2,3,4-tetrahydroquinoline-6-sulfonamide]", "IC50": 26.1}, {"smiles": "Cc1cc(CN(C)C(=O)COc2cc(Cl)ccc2Oc2cc(Cl)cc(C#N)c2)on1", "note": "[Example 25]", "IC50": 2180}, {"smiles": "Cc1cnccc1NC(=O)COc1cc(Cl)ccc1Oc1cc(Cl)cc(C#N)c1", "note": "[Example 50]", "IC50": 5.68}, {"smiles": "N#Cc1cc(Cl)cc(Oc2cc(Cl)ccc2OCC(=O)Nc2ccc(S(N)(=O)=O)cc2Cl)c1", "note": "[Example 9, N-[4-(Aminosulfonyl)-2-chlorophenyl]-2-[4-chloro-2-(3-chloro-5-cyanophenoxy)phenoxy]acetamide]", "IC50": 6}]}]}
